# System: 422866-222-R5-J1-PDC complex spheroid viability
# Assay: Anticancer human tumor 422866-222-R5-J1-PDC patient-derived pancreatic adenocarcinoma cell line growth inhibition [POLQ]
# Settings: for IC50: curve of first compound; for viability, T/C: stronger effect = lower value
# Summary of the method: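 Patient-derived tumour cells were co-cultured with HUVEC and mesenchymal stem cells as multicellular spheroids at 37 °C. They were treated with POLQ inhibitors (novobiocin, ART-558, RP6685) alone or combined with other agents. Top concentrations were at or near clinical Cmax (otherwise 10 microM; SN-38 at 1 microM), decreasing in half-log steps.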
# [1] = second compound 0.0316 µM, first compound 0.0316 µM
# [2] = second compound 0.0316 µM, first compound 0.1 µM
# [3] = second compound 0.0316 µM, first compound 0.316 µM
# [4] = second compound 0.0316 µM, first compound 1 µM
# [5] = second compound 0.0316 µM, first compound 3.16 µM
# [6] = second compound 0.0316 µM, first compound 10 µM
# [7] = second compound 0.1 µM, first compound 0.0316 µM
# [8] = second compound 0.1 µM, first compound 0.1 µM
# [9] = second compound 0.1 µM, first compound 0.316 µM
# [10] = second compound 0.1 µM, first compound 1 µM
# [11] = second compound 0.1 µM, first compound 3.16 µM
# [12] = second compound 0.1 µM, first compound 10 µM
# [13] = second compound 0.316 µM, first compound 0.0316 µM
# [14] = second compound 0.316 µM, first compound 0.1 µM
# [15] = second compound 0.316 µM, first compound 0.316 µM
# [16] = second compound 0.316 µM, first compound 1 µM
# [17] = second compound 0.316 µM, first compound 3.16 µM
# [18] = second compound 0.316 µM, first compound 10 µM
# [19] = second compound 1 µM, first compound 0.0316 µM
# [20] = second compound 1 µM, first compound 0.1 µM
# [21] = second compound 1 µM, first compound 0.316 µM
# [22] = second compound 1 µM, first compound 1 µM
# [23] = second compound 1 µM, first compound 3.16 µM
# [24] = second compound 1 µM, first compound 10 µM
# [25] = second compound 3.16 µM, first compound 0.0316 µM
# [26] = second compound 3.16 µM, first compound 0.1 µM
# [27] = second compound 3.16 µM, first compound 0.316 µM
# [28] = second compound 3.16 µM, first compound 1 µM
# [29] = second compound 3.16 µM, first compound 3.16 µM
# [30] = second compound 3.16 µM, first compound 10 µM
# [31] = second compound 10 µM, first compound 0.0316 µM
# [32] = second compound 10 µM, first compound 0.1 µM
# [33] = second compound 10 µM, first compound 0.316 µM
# [34] = second compound 10 µM, first compound 1 µM
# [35] = second compound 10 µM, first compound 3.16 µM
# [36] = second compound 10 µM, first compound 10 µM
# 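Also: spheroids exposed to compounds for one week before readout.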
# 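For viability, T/C in this document: percent of DMSO vehicle wells luminescence so 100% = untreated viability.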
compound,measurement,setting,value
C=CC(=O)N1CCN(c2nc(=O)n(-c3c(C)ccnc3C(C)C)c3nc(-c4c(O)cccc4F)c(F)cc23)C(C)C1 (centres undefined) + COC1C(OC(N)=O)C(O)C(Oc2ccc3c(O)c(NC(=O)c4ccc(O)c(CC=C(C)C)c4)c(=O)oc3c2C)OC1(C)C,IC50,second compound 0.0316 µM,< 31.6 nM
same,IC50,second compound 0.1 µM,< 31.6 nM
same,IC50,second compound 0.316 µM,< 31.6 nM
same,IC50,second compound 1 µM,< 31.6 nM
same,IC50,second compound 3.16 µM,< 31.6 nM
same,IC50,second compound 10 µM,< 31.6 nM
same,"viability, T/C",[1],33.4%
same,"viability, T/C",[2],26.7%
same,"viability, T/C",[3],29%
same,"viability, T/C",[4],22.4%
same,"viability, T/C",[5],28%
same,"viability, T/C",[6],33%
same,"viability, T/C",[7],32.8%
same,"viability, T/C",[8],28.9%
same,"viability, T/C",[9],23.3%
same,"viability, T/C",[10],23.7%
same,"viability, T/C",[11],23.2%
same,"viability, T/C",[12],27.1%
same,"viability, T/C",[13],29.9%
same,"viability, T/C",[14],25.1%
same,"viability, T/C",[15],24.3%
same,"viability, T/C",[16],21%
same,"viability, T/C",[17],24.4%
same,"viability, T/C",[18],28.7%
same,"viability, T/C",[19],34.4%
same,"viability, T/C",[20],30.6%
same,"viability, T/C",[21],28.4%
same,"viability, T/C",[22],28.4%
same,"viability, T/C",[23],20.8%
same,"viability, T/C",[24],25.6%
same,"viability, T/C",[25],31.3%
same,"viability, T/C",[26],27.1%
same,"viability, T/C",[27],28.3%
same,"viability, T/C",[28],23.7%
same,"viability, T/C",[29],28.2%
same,"viability, T/C",[30],29.3%
same,"viability, T/C",[31],32.2%
same,"viability, T/C",[32],26.8%
same,"viability, T/C",[33],30%
same,"viability, T/C",[34],22.9%
same,"viability, T/C",[35],25.4%
same,"viability, T/C",[36],28.6%
CC1COCCN1c1cc(C2(O)CC3CCC(C2)O3)c2cnn(-c3ccn[nH]3)c2n1 (centres undefined) + COC1C(OC(N)=O)C(O)C(Oc2ccc3c(O)c(NC(=O)c4ccc(O)c(CC=C(C)C)c4)c(=O)oc3c2C)OC1(C)C,IC50,second compound 0.0316 µM,> 10000 nM
same,IC50,second compound 0.1 µM,> 10000 nM
same,IC50,second compound 0.316 µM,< 31.6 nM
same,IC50,second compound 1 µM,> 10000 nM
same,IC50,second compound 3.16 µM,> 10000 nM
same,IC50,second compound 10 µM,> 10000 nM
same,"viability, T/C",[1],71.4%
same,"viability, T/C",[2],47.9%
same,"viability, T/C",[3],45.8%
same,"viability, T/C",[4],83.7%
same,"viability, T/C",[5],70.7%
same,"viability, T/C",[6],79.8%
same,"viability, T/C",[7],73.5%
same,"viability, T/C",[8],47%
same,"viability, T/C",[9],41.9%
same,"viability, T/C",[10],65.3%
same,"viability, T/C",[11],76.8%
same,"viability, T/C",[12],66.4%
same,"viability, T/C",[13],72.9%
same,"viability, T/C",[14],36.2%
same,"viability, T/C",[15],37%
same,"viability, T/C",[16],77.8%
same,"viability, T/C",[17],71.5%
same,"viability, T/C",[18],71.7%
same,"viability, T/C",[19],75.6%
same,"viability, T/C",[20],45.3%
same,"viability, T/C",[21],47.8%
same,"viability, T/C",[22],77.7%
same,"viability, T/C",[23],63.4%
same,"viability, T/C",[24],77.7%
same,"viability, T/C",[25],84.3%
same,"viability, T/C",[26],44.4%
same,"viability, T/C",[27],48%
same,"viability, T/C",[28],75.2%
same,"viability, T/C",[29],67.5%
same,"viability, T/C",[30],71.1%
same,"viability, T/C",[31],79.1%
same,"viability, T/C",[32],52.7%
same,"viability, T/C",[33],40.7%
same,"viability, T/C",[34],82.9%
same,"viability, T/C",[35],75.2%
same,"viability, T/C",[36],65.6%

# — PubChem BioAssay AID1963844 (Molecular Pharmacology Branch, DTP, NCI, 2024)
